Source: US10640535B2, “Identification of MHC class I phospho-peptide antigens from breast cancer utilizing SHLA technology and complementary enrichment strategies” (Agenus Inc., priority 2012, dated 2020)
Non-standard residues stand in square brackets, D forms with d. No end group written: not given here. pS = N[C@@H](COP(=O)(O)O)C(=O)O

System: phosphopeptide-specific CTL
Assay: Recognition of naturally processed phosphopeptides on cancer cell lines by phosphopeptide-specific CTL (murine IFNγ ELISA)
Type: cell-based
Settings: 24 hours with COV413.AAD.A4, DM331.AAD.A4, SLM2.AAD.A1, MCF7.AAD.A2, MDAMB231.AAD cancer lines and JY EBV-BLCL control
Experimental: FIG. 1, comprising FIGS. 1A and 1B, is a graphic illustration of the recognition of naturally processed and presented phosphorylated peptides on cancer cells by the phosphopeptide-specific CTL. Phosphopeptide-specific CTL were incubated with the following cancer cell lines or EBV-transformed B lymphoblastoid cell lines (BLCL): COV413.AAD.A4 ovarian carcinoma, DM331.AAD.A4 and SLM2.AAD.A1 melanomas, MCF7.AAD.A2 and MDAMB231.AAD breast carcinomas, and JY EBV-BLCL. Supernatants were harvested and evaluated for the presence of murine IFNγ (produced by murine CTL lines). […] The ordinate indicates murine IFNγ in pg/ml. The abscissa indicates each cell line.
CTL specific for two of the antigen peptides were generated by long term culture with the peptides. Two CTL lines specific for the antigen peptide GLLGpSPVRA, lines 6850 and 6960, SEQ ID NO: 13, and two CTL lines specific for the antigen peptide RVApSPTSGV, SEQ ID NO: 14, lines 5183 and 63 were used to detect these two antigen peptides on cancer cells. […] Supernatants were harvested 24 hours later and evaluated for the presence of murine IFN[…] (produced by murine CTL lines) by ELISA (eBioscience Ready-Set-go murine IFN[…] ELISA kit).

Substance | recognition of the phosphopeptide on cell lines by phosphopeptide-specific CTL (murine IFNγ in supernatant) (CTL lines 6850 and 6960, FIG. 1A) | recognition of the phosphopeptide on cell lines by phosphopeptide-specific CTL (murine IFNγ in supernatant) (CTL lines 5183 and 63, FIG. 1B)
GLLGpSPVRA (GLLG[pS]PVRA; listed as Homo sapiens) [phosphopeptide from CDC25b:p63, HLA-A2.1] | recognize the phosphopeptide on all the cancer cell lines, but not the control cell line | –
RVApSPTSGV (RVA[pS]PTSGV; listed as Homo sapiens) [phosphopeptide from Insulin receptor substrate-2, HLA-A2.1] | – | recognize the phosphopeptide on all the cancer cell lines, but not the control cell line
